Values quoted from earlier work in patent publication US20080014156A1, “PHOTOPROTECTANT COMPOSITION FOR PREVENTING SUNBURN AND SUN DAMAGE TO THE SKIN” (priority 2006, published 2008).

Conditions: relative to vitamin E

With CC1=C(/C=C/C(C)=C/C=C/C(C)=C/C=C/C=C(C)/C=C/C=C(C)/C=C/C2=C(C)C(=O)[C@@H](O)CC2(C)C)C(C)(C)C[C@H](O)C1=O [Astaxanthin] as the molecule, how does the “antioxidant effectiveness compared with vitamin E” value read?
Its value is “up to 550 times”.
